Laboratory results as given in PMC12136037, “Type II kinase inhibitors that target Parkinson’s disease–associated LRRK2” (Science Advances, 2025).

Assays:
Assay in all cases: DSF 100 kinase selectivity screen;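 for dTm: compound tested at 20 µM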
Format in all cases: binding
[1] = biological target: T1, ~100 representative kinases (Homo sapiens, UniProt O15075); conditions: Protein DCAMKL1; average of three replicates
T1 construct: Recombinant protein kinase domains with a concentration of 2 μM
Experimental: (§1) Recombinant protein kinase domains with a concentration of 2 μM were mixed with a 20 μM compound solution in dimethyl sulfoxide (DMSO), 20 mM Hepes (pH 7.5), and 500 mM NaCl. SYPRO Orange (5000×, Invitrogen) was added as a fluorescence probe (1μl/ml). Subsequently, temperature-dependent protein unfolding profiles were measured using the QuantStudio 5 realtime PCR machine (Thermo Fisher Scientific, Waltham, MA, USA). […] The temperature was raised with a step rate of 3°C/min. […] Differences in melting temperature are given as ΔTm values in degrees Celsius. […]

[2] = biological target: T2, ~100 representative kinases (Homo sapiens, UniProt Q5VT25); conditions: Protein CDC42BPA; average of three replicates
T2 construct: Recombinant protein kinase domains with a concentration of 2 μM
Experimental: as §1

[3] = biological target: T3, ~100 representative kinases (Homo sapiens, UniProt P11362); conditions: protein FGFR1; average of three replicates
T3 construct: Recombinant protein kinase domains with a concentration of 2 μM
Experimental: as §1

[4] = biological target: T4, ~100 representative kinases (Homo sapiens, UniProt P49759); conditions: Protein CLK1; average of three replicates
T4 construct: Recombinant protein kinase domains with a concentration of 2 μM
Experimental: as §1

[5] = biological target: T5, ~100 representative kinases (Homo sapiens, UniProt Q96PY6); conditions: protein NEK1; average of three replicates
T5 construct: Recombinant protein kinase domains with a concentration of 2 μM
T5 sequence (Q96PY6 1-1258): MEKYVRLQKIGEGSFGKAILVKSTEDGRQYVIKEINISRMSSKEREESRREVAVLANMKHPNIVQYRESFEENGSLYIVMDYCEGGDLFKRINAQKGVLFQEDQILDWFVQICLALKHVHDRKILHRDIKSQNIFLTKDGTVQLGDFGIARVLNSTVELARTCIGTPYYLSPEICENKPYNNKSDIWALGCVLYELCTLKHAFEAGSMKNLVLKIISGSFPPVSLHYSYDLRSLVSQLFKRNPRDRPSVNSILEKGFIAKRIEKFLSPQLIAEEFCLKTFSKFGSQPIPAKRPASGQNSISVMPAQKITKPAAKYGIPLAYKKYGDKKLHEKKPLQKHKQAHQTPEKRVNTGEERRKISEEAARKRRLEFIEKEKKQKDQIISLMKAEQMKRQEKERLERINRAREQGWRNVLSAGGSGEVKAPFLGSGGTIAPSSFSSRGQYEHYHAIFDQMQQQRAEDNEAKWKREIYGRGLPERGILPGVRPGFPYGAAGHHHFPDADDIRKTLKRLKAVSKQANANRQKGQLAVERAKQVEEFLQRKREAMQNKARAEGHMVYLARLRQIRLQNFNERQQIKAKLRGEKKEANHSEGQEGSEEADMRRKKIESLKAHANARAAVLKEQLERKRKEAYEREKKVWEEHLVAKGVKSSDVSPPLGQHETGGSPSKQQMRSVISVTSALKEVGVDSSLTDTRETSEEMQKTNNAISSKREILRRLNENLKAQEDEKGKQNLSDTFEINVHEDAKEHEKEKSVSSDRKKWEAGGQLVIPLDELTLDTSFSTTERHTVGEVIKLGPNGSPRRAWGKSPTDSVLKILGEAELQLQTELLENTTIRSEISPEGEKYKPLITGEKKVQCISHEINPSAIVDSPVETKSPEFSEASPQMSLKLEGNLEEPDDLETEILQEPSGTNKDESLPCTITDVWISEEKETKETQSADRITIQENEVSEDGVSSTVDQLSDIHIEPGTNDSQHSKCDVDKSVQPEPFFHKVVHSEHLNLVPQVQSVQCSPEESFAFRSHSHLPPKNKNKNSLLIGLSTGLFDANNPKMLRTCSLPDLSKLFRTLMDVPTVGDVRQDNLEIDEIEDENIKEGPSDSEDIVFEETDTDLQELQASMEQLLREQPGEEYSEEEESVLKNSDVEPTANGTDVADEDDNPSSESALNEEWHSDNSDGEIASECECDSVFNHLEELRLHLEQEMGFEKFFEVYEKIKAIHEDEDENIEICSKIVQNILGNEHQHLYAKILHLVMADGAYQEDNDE
Experimental: as §1

[6] = biological target: T6, ~100 representative kinases (Homo sapiens, UniProt O94804); conditions: Protein STK10; DSF; average of three replicates
T6 construct: Recombinant protein kinase domains with a concentration of 2 μM
Experimental: as §1

[7] = biological target: T7, ~100 representative kinases (Homo sapiens, UniProt Q9H2G2); conditions: Protein SLK; DSF; average of three replicates
T7 construct: Recombinant protein kinase domains with a concentration of 2 μM
Experimental: as §1

[8] = biological target: T8, ~100 representative kinases (Homo sapiens, UniProt P19784); conditions: Protein CK2A2; average of three replicates
T8 construct: Recombinant protein kinase domains with a concentration of 2 μM
Experimental: as §1

[9] = biological target: T9, ~100 representative kinases (Homo sapiens, UniProt P48730); conditions: Protein CSNK1D; average of three replicates
T9 construct: Recombinant protein kinase domains with a concentration of 2 μM
Experimental: as §1

[10] = biological target: T10, ~100 representative kinases (Homo sapiens, UniProt P07332); conditions: protein FESA; average of three replicates
T10 construct: Recombinant protein kinase domains with a concentration of 2 μM
Experimental: as §1

[11] = system: ~100 representative kinases; conditions: for dTm: Protein BRD, average of three replicates; for # >5K: number of proteins of the DSF panel with dTm >5K
Experimental: as §1

[12] = biological target: T11, ~100 representative kinases (Homo sapiens, UniProt Q9UEE5); conditions: Protein STK17A; DSF; average of three replicates
T11 construct: Recombinant protein kinase domains with a concentration of 2 μM
T11 sequence (Q9UEE5 1-414): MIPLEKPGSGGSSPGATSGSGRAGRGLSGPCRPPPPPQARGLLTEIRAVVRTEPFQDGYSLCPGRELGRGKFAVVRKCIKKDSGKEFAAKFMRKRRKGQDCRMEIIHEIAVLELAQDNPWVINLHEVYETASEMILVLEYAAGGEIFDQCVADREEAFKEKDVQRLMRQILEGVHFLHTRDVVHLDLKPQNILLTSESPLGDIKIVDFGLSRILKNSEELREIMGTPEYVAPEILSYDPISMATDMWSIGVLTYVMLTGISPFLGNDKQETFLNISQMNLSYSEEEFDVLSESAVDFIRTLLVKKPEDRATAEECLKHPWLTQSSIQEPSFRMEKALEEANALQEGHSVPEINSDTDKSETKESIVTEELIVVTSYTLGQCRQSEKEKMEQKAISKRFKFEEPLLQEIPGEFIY
Experimental: as §1

[13] = number of kinases with thermal shift >5 K divided by total number of kinases screened
[14] = selectivity score: # >5K divided by # of proteins tested in the DSF panel

T7 sequence (Q9H2G2 whole entry, the tested form may be a part): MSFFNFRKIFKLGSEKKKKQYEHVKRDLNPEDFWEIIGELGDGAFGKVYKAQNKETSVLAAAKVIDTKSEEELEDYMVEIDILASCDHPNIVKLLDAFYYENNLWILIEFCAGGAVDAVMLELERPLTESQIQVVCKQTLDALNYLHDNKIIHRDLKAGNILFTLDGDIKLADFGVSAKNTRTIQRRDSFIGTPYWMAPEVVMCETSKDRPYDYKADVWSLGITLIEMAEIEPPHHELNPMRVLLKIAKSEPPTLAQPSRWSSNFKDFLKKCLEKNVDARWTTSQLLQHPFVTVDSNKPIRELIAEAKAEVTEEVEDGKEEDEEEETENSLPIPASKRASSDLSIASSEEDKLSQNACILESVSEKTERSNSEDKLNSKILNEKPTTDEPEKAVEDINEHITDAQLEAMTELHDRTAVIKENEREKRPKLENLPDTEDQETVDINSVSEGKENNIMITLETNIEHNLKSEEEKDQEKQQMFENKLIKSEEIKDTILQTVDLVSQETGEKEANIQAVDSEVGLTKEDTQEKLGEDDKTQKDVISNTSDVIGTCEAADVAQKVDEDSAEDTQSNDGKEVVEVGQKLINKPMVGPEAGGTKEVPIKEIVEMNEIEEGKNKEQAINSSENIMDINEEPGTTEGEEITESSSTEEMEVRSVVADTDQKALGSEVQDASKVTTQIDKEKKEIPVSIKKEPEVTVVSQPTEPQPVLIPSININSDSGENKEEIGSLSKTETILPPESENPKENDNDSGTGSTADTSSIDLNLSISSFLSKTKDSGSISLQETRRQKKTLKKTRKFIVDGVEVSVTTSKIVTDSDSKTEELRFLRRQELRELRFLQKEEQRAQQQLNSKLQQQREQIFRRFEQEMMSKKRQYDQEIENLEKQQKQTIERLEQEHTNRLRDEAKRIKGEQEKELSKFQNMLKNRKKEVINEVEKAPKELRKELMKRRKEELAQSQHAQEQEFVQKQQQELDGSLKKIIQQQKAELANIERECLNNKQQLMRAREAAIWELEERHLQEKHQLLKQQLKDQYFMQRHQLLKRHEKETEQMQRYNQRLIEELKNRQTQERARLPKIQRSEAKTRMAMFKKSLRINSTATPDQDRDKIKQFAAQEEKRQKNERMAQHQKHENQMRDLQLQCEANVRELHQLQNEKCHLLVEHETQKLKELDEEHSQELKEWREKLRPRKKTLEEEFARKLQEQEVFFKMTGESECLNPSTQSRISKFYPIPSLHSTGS
T4 sequence (P49759 whole entry, the tested form may be a part): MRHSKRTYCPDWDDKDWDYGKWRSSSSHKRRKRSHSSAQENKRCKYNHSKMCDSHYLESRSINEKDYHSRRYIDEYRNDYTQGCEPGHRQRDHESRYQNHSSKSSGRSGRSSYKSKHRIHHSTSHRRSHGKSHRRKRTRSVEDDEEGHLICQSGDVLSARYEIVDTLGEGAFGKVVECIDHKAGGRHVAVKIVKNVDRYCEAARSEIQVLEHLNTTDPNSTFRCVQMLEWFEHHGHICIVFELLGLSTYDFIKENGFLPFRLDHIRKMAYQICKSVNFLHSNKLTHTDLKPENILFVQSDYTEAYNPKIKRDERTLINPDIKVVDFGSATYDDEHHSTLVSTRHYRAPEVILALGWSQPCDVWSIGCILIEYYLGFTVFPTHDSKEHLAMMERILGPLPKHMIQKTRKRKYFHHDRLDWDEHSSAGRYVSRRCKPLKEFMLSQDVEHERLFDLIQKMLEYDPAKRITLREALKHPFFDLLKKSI
T8 sequence (P19784 whole entry, the tested form may be a part): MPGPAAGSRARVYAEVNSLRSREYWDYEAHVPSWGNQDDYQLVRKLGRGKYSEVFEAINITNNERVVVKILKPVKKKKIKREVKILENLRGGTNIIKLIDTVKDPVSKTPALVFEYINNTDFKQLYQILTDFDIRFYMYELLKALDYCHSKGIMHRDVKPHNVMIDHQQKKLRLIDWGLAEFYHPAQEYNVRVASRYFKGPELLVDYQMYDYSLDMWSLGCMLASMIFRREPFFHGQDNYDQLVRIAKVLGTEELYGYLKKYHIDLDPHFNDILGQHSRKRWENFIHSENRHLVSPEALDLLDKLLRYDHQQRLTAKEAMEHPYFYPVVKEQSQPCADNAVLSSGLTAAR
T6 sequence (O94804 whole entry, the tested form may be a part): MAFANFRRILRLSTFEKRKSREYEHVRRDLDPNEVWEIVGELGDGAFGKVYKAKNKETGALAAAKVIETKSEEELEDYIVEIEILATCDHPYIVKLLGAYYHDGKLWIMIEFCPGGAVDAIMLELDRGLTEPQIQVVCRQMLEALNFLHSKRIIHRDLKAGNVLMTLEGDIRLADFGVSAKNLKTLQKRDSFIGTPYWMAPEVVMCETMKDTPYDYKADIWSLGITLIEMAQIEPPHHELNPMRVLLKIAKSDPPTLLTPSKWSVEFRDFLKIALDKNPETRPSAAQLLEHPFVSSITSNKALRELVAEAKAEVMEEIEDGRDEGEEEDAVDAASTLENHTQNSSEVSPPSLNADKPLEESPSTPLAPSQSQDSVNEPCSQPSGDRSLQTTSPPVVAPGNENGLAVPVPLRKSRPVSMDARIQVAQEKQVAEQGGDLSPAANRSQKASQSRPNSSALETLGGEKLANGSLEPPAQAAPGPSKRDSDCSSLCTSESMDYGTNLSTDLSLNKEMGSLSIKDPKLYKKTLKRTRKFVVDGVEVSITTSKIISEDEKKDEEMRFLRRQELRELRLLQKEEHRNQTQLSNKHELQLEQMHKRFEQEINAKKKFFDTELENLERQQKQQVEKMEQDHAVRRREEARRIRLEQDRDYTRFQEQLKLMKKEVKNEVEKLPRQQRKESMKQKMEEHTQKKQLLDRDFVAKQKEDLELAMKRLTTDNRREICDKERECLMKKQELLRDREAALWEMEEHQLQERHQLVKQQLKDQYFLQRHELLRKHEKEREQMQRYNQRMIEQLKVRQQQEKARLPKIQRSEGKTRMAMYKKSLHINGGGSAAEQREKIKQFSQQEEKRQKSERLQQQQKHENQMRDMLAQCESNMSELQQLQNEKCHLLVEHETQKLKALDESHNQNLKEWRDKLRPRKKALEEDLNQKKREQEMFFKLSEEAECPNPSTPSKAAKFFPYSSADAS
T3 sequence (P11362 22-822): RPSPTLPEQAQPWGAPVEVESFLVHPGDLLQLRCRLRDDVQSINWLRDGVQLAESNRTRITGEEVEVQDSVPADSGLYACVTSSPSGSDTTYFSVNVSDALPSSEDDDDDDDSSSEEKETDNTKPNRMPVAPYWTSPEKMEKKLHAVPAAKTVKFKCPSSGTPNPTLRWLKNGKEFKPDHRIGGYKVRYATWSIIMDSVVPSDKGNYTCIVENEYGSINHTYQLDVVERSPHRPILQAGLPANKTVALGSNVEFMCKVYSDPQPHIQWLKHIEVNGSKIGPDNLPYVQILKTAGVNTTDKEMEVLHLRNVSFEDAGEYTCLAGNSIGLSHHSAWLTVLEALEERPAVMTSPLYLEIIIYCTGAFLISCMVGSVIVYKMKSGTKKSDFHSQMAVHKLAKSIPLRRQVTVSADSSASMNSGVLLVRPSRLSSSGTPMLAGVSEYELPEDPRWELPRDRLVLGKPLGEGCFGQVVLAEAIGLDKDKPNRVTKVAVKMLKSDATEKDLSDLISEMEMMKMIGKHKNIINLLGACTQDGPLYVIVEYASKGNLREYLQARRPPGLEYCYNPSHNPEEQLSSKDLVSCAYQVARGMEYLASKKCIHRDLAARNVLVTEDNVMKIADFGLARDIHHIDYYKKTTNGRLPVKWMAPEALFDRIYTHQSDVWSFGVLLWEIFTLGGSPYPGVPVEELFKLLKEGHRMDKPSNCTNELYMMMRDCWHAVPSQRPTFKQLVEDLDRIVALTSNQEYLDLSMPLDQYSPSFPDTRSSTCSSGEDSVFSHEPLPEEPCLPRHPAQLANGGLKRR
T9 sequence (P48730 whole entry, the tested form may be a part): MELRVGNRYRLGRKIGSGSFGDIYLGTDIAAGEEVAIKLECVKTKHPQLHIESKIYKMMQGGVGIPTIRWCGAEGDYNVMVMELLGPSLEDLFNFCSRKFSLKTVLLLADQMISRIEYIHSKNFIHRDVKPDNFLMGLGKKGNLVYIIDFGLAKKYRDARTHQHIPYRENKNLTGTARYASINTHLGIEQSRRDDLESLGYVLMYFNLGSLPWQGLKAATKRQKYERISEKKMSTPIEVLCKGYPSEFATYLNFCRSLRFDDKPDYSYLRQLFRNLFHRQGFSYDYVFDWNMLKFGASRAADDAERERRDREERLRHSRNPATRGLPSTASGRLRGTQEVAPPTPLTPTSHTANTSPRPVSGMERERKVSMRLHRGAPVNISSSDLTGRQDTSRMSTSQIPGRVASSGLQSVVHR
T10 sequence (P07332 whole entry, the tested form may be a part): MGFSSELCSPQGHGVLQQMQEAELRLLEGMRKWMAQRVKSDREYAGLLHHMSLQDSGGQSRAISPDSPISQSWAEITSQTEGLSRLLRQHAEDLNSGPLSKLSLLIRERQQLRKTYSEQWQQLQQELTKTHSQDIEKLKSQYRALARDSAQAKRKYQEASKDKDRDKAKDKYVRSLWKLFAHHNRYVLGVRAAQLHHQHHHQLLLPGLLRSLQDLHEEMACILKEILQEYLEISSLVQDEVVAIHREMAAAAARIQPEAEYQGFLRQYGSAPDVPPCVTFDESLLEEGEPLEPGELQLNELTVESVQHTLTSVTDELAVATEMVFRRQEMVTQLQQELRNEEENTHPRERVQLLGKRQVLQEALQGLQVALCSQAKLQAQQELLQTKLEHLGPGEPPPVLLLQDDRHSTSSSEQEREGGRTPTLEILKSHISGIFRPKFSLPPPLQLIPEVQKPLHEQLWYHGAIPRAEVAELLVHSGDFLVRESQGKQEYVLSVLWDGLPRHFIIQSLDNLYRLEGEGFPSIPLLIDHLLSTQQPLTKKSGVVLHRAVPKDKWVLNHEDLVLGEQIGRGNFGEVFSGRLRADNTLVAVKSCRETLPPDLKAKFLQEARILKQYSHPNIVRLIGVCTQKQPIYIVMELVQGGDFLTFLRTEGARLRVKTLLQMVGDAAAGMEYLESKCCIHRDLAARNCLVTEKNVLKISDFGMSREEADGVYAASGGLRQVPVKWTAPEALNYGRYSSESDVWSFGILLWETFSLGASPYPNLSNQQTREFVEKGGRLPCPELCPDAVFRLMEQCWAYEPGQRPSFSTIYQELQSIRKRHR

Cc1ccc(NC(=O)C2(C(=O)Nc3cccc(-c4c[nH]c5ncnc(N6CCOCC6)c45)c3)CC2)cc1 [Compound 14]
dTm [1]: -0.07 K | dTm [2]: -1.21 K | dTm [3]: 0.77 K | dTm [4]: 6.84 K | dTm [5]: 0.23 K | dTm [6]: 11.44 K | dTm [7]: 5.25 K | dTm [8]: 5.87 K | dTm [9]: 1.58 K | dTm [10]: 6.21 K | dTm [11]: -1.11 K | S(5K) [11, 13]: 0.22 | # >5K [11]: 22 | S(5K) [11, 14]: 0.220 | dTm [12]: -0.61 K

CCc1ccc(NC(=O)C2(C(=O)Nc3cccc(-c4c[nH]c5ncnc(N6CCOCC6)c45)c3)CC2)cc1 [Compound 15]
dTm [1]: 0.05 K | dTm [2]: -0.98 K | dTm [3]: 0.64 K | dTm [4]: 6.65 K | dTm [5]: 0.19 K | dTm [6]: 12.89 K | dTm [7]: 5.04 K | dTm [8]: 1.24 K | dTm [9]: 1.30 K | dTm [10]: 4.64 K | dTm [11]: -2.47 K | S(5K) [11, 13]: 0.23 | # >5K [11]: 23 | S(5K) [11, 14]: 0.230 | dTm [12]: -0.28 K

COc1ccc(NC(=O)C2(C(=O)Nc3cccc(-c4c[nH]c5ncnc(N6CCOCC6)c45)c3)CC2)cc1 [Compound 16]
dTm [1]: -1.88 K | dTm [2]: -1.10 K | dTm [3]: 0.70 K | dTm [4]: 7.75 K | dTm [5]: 0.34 K | dTm [6]: 7.29 K | dTm [7]: 1.57 K | dTm [8]: 4.77 K | dTm [9]: 0.92 K | dTm [10]: 3.37 K | dTm [11]: -2.19 K | S(5K) [11, 13]: 0.10 | # >5K [11]: 10 | S(5K) [11, 14]: 0.100 | dTm [12]: -0.48 K

O=C(Nc1cccc(-c2c[nH]c3ncnc(N4CCOCC4)c23)c1)C1(C(=O)Nc2ccc(F)c(F)c2)CC1 [Compound 17]
dTm [1]: 1.90 K | dTm [2]: -0.72 K | dTm [3]: 1.11 K | dTm [4]: 8.95 K | dTm [5]: 0.29 K | dTm [6]: 13.86 K | dTm [7]: 7.02 K | dTm [8]: 8.40 K | dTm [9]: 2.63 K | dTm [10]: 5.87 K | dTm [11]: 0.26 K | S(5K) [11, 13]: 0.32 | # >5K [11]: 32 | S(5K) [11, 14]: 0.320 | dTm [12]: 0.99 K

O=C(Nc1cccc(-c2c[nH]c3ncnc(N4CCOCC4)c23)c1)C1(C(=O)Nc2ccc(F)c(Cl)c2)CC1 [Compound 18]
dTm [1]: 2.36 K | dTm [2]: -0.25 K | dTm [3]: 2.20 K | dTm [4]: 9.40 K | dTm [5]: -0.32 K | dTm [6]: 15.34 K | dTm [7]: 8.41 K | dTm [8]: 1.36 K | dTm [9]: 3.14 K | dTm [10]: 6.93 K | dTm [11]: 0.45 K | S(5K) [11, 13]: 0.36 | # >5K [11]: 36 | S(5K) [11, 14]: 0.360 | dTm [12]: 2.92 K

O=C(Nc1cccc(-c2c[nH]c3ncnc(N4CCOCC4)c23)c1)C1(C(=O)Nc2ccc(F)c(Br)c2)CC1 [Compound 19]
dTm [1]: 4.80 K | dTm [2]: 0.14 K | dTm [3]: 1.26 K | dTm [4]: 8.69 K | dTm [5]: -0.89 K | dTm [6]: 16.12 K | dTm [7]: 8.05 K | dTm [8]: 7.91 K | dTm [9]: 0.43 K | dTm [10]: 6.49 K | dTm [11]: 1.82 K | S(5K) [11, 13]: 0.31 | # >5K [11]: 32 | S(5K) [11, 14]: 0.308 | dTm [12]: 2.37 K

Cc1cc(NC(=O)C2(C(=O)Nc3cccc(-c4c[nH]c5ncnc(N6CCOCC6)c45)c3)CC2)ccc1F [Compound 20]
dTm [1]: 2.29 K | dTm [2]: -1.13 K | dTm [3]: 2.46 K | dTm [4]: 11.22 K | dTm [5]: -0.05 K | dTm [6]: 16.12 K | dTm [7]: 8.94 K | dTm [8]: 1.33 K | dTm [9]: 3.49 K | dTm [10]: 7.60 K | dTm [11]: -0.20 K | S(5K) [11, 13]: 0.42 | # >5K [11]: 42 | S(5K) [11, 14]: 0.420 | dTm [12]: 2.25 K

COc1cc(NC(=O)C2(C(=O)Nc3cccc(-c4c[nH]c5ncnc(N6CCOCC6)c45)c3)CC2)ccc1F [Compound 21]
dTm [1]: 1.25 K | dTm [2]: -1.17 K | dTm [3]: 1.39 K | dTm [4]: 10.73 K | dTm [5]: -0.0539 K | dTm [6]: 12.16 K | dTm [7]: 6.44 K | dTm [8]: 3.16 K | dTm [9]: 3.13 K | dTm [10]: 6.34 K | dTm [11]: -1.43 K | S(5K) [11, 13]: 0.28 | # >5K [11]: 28 | S(5K) [11, 14]: 0.280 | dTm [12]: 0.20 K

CC(C)(C)c1cccc(NC(=O)C2(C(=O)Nc3cccc(-c4c[nH]c5ncnc(N6CCOCC6)c45)c3)CC2)c1 [Compound 22]
dTm [1]: 3.75 K | dTm [2]: -0.53 K | dTm [3]: 1.53 K | dTm [4]: 7.58 K | dTm [5]: -1.56 K | dTm [6]: 15.18 K | dTm [7]: 5.75 K | dTm [8]: 2.45 K | dTm [9]: -2.04 K | dTm [10]: 7.02 K | dTm [11]: 1.52 K | S(5K) [11, 13]: 0.22 | # >5K [11]: 23 | S(5K) [11, 14]: 0.221 | dTm [12]: -0.64 K

O=C(Nc1cccc(-c2c[nH]c3ncnc(N4CCOCC4)c23)c1)C1(C(=O)Nc2ccc(F)cc2F)CC1 [Compound 23]
dTm [1]: -0.73 K | dTm [2]: -1.22 K | dTm [3]: 1.14 K | dTm [4]: 7.21 K | dTm [5]: -0.14 K | dTm [6]: 9.26 K | dTm [7]: 4.42 K | dTm [8]: 1.02 K | dTm [9]: 1.02 K | dTm [10]: 4.70 K | S (5 K) / share of screened kinases stabilized ([11]; DSF selectivity panel, thermal shift >5 K): 16% | dTm [11]: -1.02 K | S(5K) [11, 13]: 0.16 | # >5K [11]: 16 | S(5K) [11, 14]: 0.160 | dTm [12]: -0.31 K
